# Assay results: patent US20100261682A1, “Method and Means for the Treatment of Cachexia” (Bioneris AB, priority 2007, published 2010)
# Experiments:
# [1] = system: cachectic MAC16 mice; experiment: Body composition of cachectic MAC16 mice after alpha-trinositol treatment (Example 2); assay type: in vivo, NMRI mice; settings: for Body composition: Fat / Body composition: Lean mass / Body composition: Water: mean ± SD
# From the text: Animals. Pure strain male NMRI mice (average body weight 25 g) were transplanted with fragments of the MAC16 tumour subcutaneously into the flank by means of a trochar, selected from donor animals with established weight loss (Bibby M C et al., Characterization of transplantable adenocarcinoma in the mouse colon producing cachexia in the recipient animals. J Natl Cancer Inst 78 (1987) 539-546). Transplanted animals were given a rat and mouse breeding diet (Special Diet Services, Witham, UK) and water at lib. Weight loss was evident 10 to 12 days after tumour implantation. Just prior to the development of weight loss 24 animals were randomized into four groups (I-IV) of six animals each.
# Administration of alpha-trinositol. A first experiment was started when the animals had lost about 5% of body weight. Aliquots (2.5 μl, Group I; 5 μl, Group II; 10 μl, Group III) of alpha-trinositol stock solution corresponding to doses of 10 mg/kg, 20 mg/kg, and 40 mg/kg for a 25 g animal were administered subcutaneously three times per day at 8.00, 12.00 and 16.00 hrs. The fourth group (Group IV; control) was given an intravenous injection of 10 μl of water. Body weight (FIG. 1), tumour volume (FIG. 2), and water and food intake were determined daily after the last injection.
# At the end of the treatment described in Example 1 the mice were sacrificed, and their body composition was analyzed. […] The reduction of lean body mass is normally observed in cachectic patients and is a significant cause of morbidity. No significant change in water content was observed.
# [2] = system: PIF-induced chymotrypsin-like enzyme activity (proteasome) in C2C12 myotubes; experiment: PIF-induced chymotrypsin-like enzyme activity in C2C12 myotubes; assay type: cell-based, murine; settings: AT 100 μM, 4.2 nM PIF
# From the text: Protein degradation induced by PIF is mediated through up-regulation of the ubiquitin-proteasome pathway (Tisdale et al., 2004, Br. J. Cancer). […] A hexanoyl ester of AT (lipid soluble AT) has been produced as a slow release form, after hydrolysis by esterase.
# [3] = system: myosin; experiment: Western blot of gastrocnemius muscle: myosin; assay type: in vivo, NMRI mice; settings: 40 mg/kg; treatment for 4 days; reduced by 90% in untreated tumour-bearing mice
# Method: (§1) Administration of alpha-trinositol. Mice (n=6) bearing the MAC16 tumour were treated with AT (40 mg/kg) s.c., 3 times per day, for 5 days, while a control group received PBS. Protein synthesis and degradation were determined by the incorporation and release of L-[2,6-^3H]phenylalanine, as described in Smith et al., Cancer Res., 2005; 65:277-83. On the fourth day of treatment half of the group administered 0.4 mmol/L L-[2,6-^3H]phenylalanine in PBS (100 μl) by i.p. administration.
# Western blot analysis Gastrocnemius muscle (10 mg) was homogenised in Phosphosafe™ Extraction Reagent (500 μl) and centrifuged at 15000 g for 15 min. Samples of the cytosolic proteins (5 μg) were loaded on either a 10% (mTOR, myosin, eIF4E and eIF4G) 12% (PKR, eIF2α and actin) or 15% (4E-BP1) sodium dodecylsulphate-polyacrylamide gel (SDS-PAGE) and electrophoresed at 180 V for approximately 1 h. The extent of phosphorylation of 4E-BP1, and the association of 4E-BP1 and eIF4G with eIF4E was determined by Western blotting when eIF4E was extracted from the muscle samples by m^7GTP-Sepharose 4B-affinity binding, as previously described Eley ey al., Biochem J., 2007; 407:113-20, by loading 20 μg of protein. […] Blots were scanned by a densitometer to quantify differences.
# [4] = system: caspase 3; experiment: Caspase 3 activity in gastrocnemius muscle; assay type: in vivo, NMRI mice; settings: 40 mg/kg; still significantly higher than in non-tumour-bearing animals
# Method: as §1
# Determination of Caspase activity. The activity of caspase 3 was determined by the release of 7-amino-4-methylcoumarin (AMC) from the specific substrate AcDEVD-AMC in the presence or absence of the caspase 3 inhibitor AcDEVD-CHO. […] The supernatant (50 μg protein) was incubated with the caspase 3 substrate for 1 h and the increase in fluorescence due to AMC was determined at an excilation wavelength of 370 nm and an emission wavelength of 430 nm. […] The increase in fluorescence due to the release of 7-amino-4-trifluoro-methylcoumarin (AFC) was measured with an excitation wavelength of 400 nm and an emission of 505 nm.
# [5] = alpha-Trinositol 10 (mg/ml as printed)
# [6] = alpha-Trinositol 20 (mg/ml as printed)
# [7] = alpha-Trinositol 40 (mg/ml as printed)
smiles,measurement,setting,value
"O=P(O)(O)O[C@@H]1[C@H](OP(=O)(O)O)[C@H](O)[C@@H](O)[C@H](O)[C@H]1OP(=O)(O)O [alpha-trinositol, 1-D-Myo-inositol 1,2,6-triphosphate]",absolute fat change from controls,[1]; [5],−19 % by weight
same,absolute lean mass change from controls,[1]; [5],+11 % by weight
same,Body composition: Fat,"[1]; alpha-Trinositol 10 (mg/ml as printed), control 6.1 ± 2.1",4.9 ± 2.3 % by weight
same,Body composition: Lean mass,"[1]; alpha-Trinositol 10 (mg/ml as printed), control 26.1 ± 1.6",27.1 ± 3.0 % by weight
same,Body composition: Water,"[1]; alpha-Trinositol 10 (mg/ml as printed), control 67.8 ± 1.2",68.0 ± 2.0 % by weight
same,absolute fat change from controls,[1]; [6],−46 % by weight
same,absolute lean mass change from controls,[1]; [6],+15 % by weight
same,Body composition: Fat,[1]; [6],3.3 ± 0.5 % by weight
same,Body composition: Lean mass,[1]; [6],28.6 ± 1.7 % by weight
same,Body composition: Water,[1]; [6],68.1 ± 1.7 % by weight
same,absolute fat change from controls,[1]; [7],−39 % by weight
same,absolute lean mass change from controls,[1]; [7],+25 % by weight
same,Body composition: Fat,[1]; [7],3.7 ± 1.9 % by weight
same,Body composition: Lean mass,[1]; [7],30.7 ± 2.5 % by weight
same,Body composition: Water,[1]; [7],65.6 ± 1.7 % by weight
same,effect on PIF-induced chymotrypsin-like enzyme activity,[2],completely attenuated
same,myosin expression in gastrocnemius muscle,[3],returned to values at the same level as in non-tumour animals
same,activity of caspase-3 in gastrocnemius muscle,[4],significantly reduced
